Experimental findings from patent US20250213707A1, “COMPOUND FOR INCREASING EFFICACY OF ONCOLYTIC VIRUSES” (ABLEVIA BIOTECH GMBH, priority 2022, published 2025) are described below.

The test relates to IgG from human donors (anti-AAV antibodies). Description: Screen for anti-AAV antibodies in human sera, 2452 linear 15-amino-acid AAV peptides on microarrays (Table 1). Set-up: key to group III: X: the deduplicated aggregate of the respective top 50 peptide hits for each donor was compiled and designated as group III. It is filed as binding. The protocol: 2452 linear peptides derived from the sequences of 16 different AAVs and with a sequence length of 15 amino-acids each were synthesized.
Samples obtained from human donors were screened for antibodies against these AAV-derived peptides immobilized on microarrays. To this end, IgG was prepared from blood obtained from the human donors by protein G purification. Each IgG sample was incubated with the peptide microarrays and Ig binding signals were detected by fluorescence. All antibody binding signals to the peptides on the arrays were background subtracted and ranked for each sample and a deduplicated aggregate of the respective top 250 peptide hits for each donor with the corresponding protein sequence of origin (as obtained from UniProt or other sources) was compiled (designated as group IV). Further, the deduplicated aggregate of the respective top 50 peptide hits for each donor was compiled and designated as group III. Further, the deduplicated aggregate of the respective top 25 peptide hits for each donor was compiled and designated as group II. Finally, the deduplicated aggregate of the respective top 10 peptide hits for each donor was compiled and designated as group I.
Altogether, group I contains 110 distinct peptide hits (assigned to the corresponding AAV vectors in Table 1), group II contains 289 distinct peptide hits, group III contains 428 distinct peptide hits and group IV contains 1271 distinct peptide hits. Evidently, group I is a subset of group II which in turn is a subset of group III which in turn is a subset of group IV. Groups I-IV correspond to the top 4.4%, […], 17.5% and 51.8%, respectively, of all peptides screened.

The mark [1] stands for this setting: X = peptide belongs to the deduplicated aggregate of the top 50 peptide hits for each donor, linear 15-amino-acid AAV peptides, IgG binding by fluorescence.
[2] abbreviates: X = peptide in the deduplicated aggregate of the top 50 peptide hits for each donor (top 17.5% of all peptides screened), linear 15-amino-acid AAV peptides on microarrays, human donor IgG, fluorescence.

As to “335 (VKEVTQNDGTTTIAN; REGION 1..15: note = peptide derived from viral capsid protein) [compound 335]”, the “group III” value under setting [1] was “X”. Take “336 (VTQNDGTTTIANNLT; REGION 1..15: note = peptide derived from viral capsid protein) [compound 336]”: the “group III” value under setting [1] is recorded as “X”. Still for that read-out and setting: next, “337 (ADNNEGADGVGNSSG; REGION 1..15: note = peptide derived from viral capsid protein) [compound 337]”: “X”; “338 (PLGLVEEPVKTAPGK; REGION 1..15: note = peptide derived from viral capsid protein) [compound 338]”: “X”; “339 (GNNFTFSYTFEDVPF; REGION 1..15: note = peptide derived from viral capsid protein) [compound 339]”: “X”. On to “340 (FSYTFEDVPFHSSYA; REGION 1..15: note = peptide derived from viral capsid protein) [compound 340]”, for which the “group III” value under setting [1] is reported as “X”. On the same count and under the same terms, the same measure for “341 (TFSYTFEDVPFHSSY; REGION 1..15: note = peptide derived from viral capsid protein) [compound 341]”: “X”; for “343 (TFEDVPFHSSYAHSQ; REGION 1..15: note = peptide derived from viral capsid protein) [compound 343]”: “X”; for “346 (TVAVNLQSSSTDPAT; REGION 1..15: note = peptide derived from viral capsid protein) [compound 346]”: “X”. Same read-out and setting: the same measure for “347 (AVNLQSSSTDPATGD; REGION 1..15: note = peptide derived from viral capsid protein) [compound 347]”: “X”; for “348 (NHYFGYSTPWGYFDF; REGION 1..15: note = peptide derived from viral capsid protein) [compound 348]”: “X”. Same read-out and setting: the same measure for “349 (GSQAVGRSSFYCLEY; REGION 1..15: note = peptide derived from viral capsid protein) [compound 349]”: “X”. On to “350 (TQYSTGQVSVEIEWE; REGION 1..15: note = peptide derived from viral capsid protein) [compound 350]”, for which, under setting [1], the “group III” value is given as “X”. The same measure, in the same setting: the same measure for “353 (TPWGYFDFNRFHCHF; REGION 1..15: note = peptide derived from viral capsid protein) [compound 353]”: “X”; for “354 (YFDFNRFHCHFSPRD; REGION 1..15: note = peptide derived from viral capsid protein) [compound 354]”: “X”. Consider “356 (YSTGQVSVEIEWELQ; REGION 1..15: note = peptide derived from viral capsid protein) [compound 356]”, for which the “group III” value under setting [1] is “X”. Still for that read-out and setting: the same measure for “357 (SLDRLMNPLIDQYLY; REGION 1..15: note = peptide derived from viral capsid protein) [compound 357]”: “X”.

Regarding “359 (SVPDPQPLGEPPATP; REGION 1..15: note = peptide derived from viral capsid protein) [compound 359]”, the “group III” value under setting [1] is on record as “X”. Still for that read-out and setting: next, “361 (YSTPWGYFDFNRFHC; REGION 1..15: note = peptide derived from viral capsid protein) [compound 361]”: “X”; “362 (AHQGCLPPFPADVFM; REGION 1..15: note = peptide derived from viral capsid protein) [compound 362]”: “X”; “363 (ASFITQYSTGQVSVE; REGION 1..15: note = peptide derived from viral capsid protein) [compound 363]”: “X”. As to “366 (MVWQDRDVYLQGPIW; REGION 1..15: note = peptide derived from viral capsid protein) [compound 366]”, under setting [1], the “group III” value is “X”.

For the substance “369 (EYQLPYVLGSAHQGC; REGION 1..15: note = peptide derived from viral capsid protein) [compound 369]”, the “group III” value under setting [1] was “X”.

With “370 (FITQYSTGQVSVEIE; REGION 1..15: note = peptide derived from viral capsid protein) [compound 370]”, the “group III” value under setting [1] is listed as “X”. On the same count and under the same terms, next, “380 (SSYAHSQSLDRLMNP; REGION 1..15: note = peptide derived from viral capsid protein) [compound 380]”: “X”; “382 (FHSSYAHSQSLDRLM; REGION 1..15: note = peptide derived from viral capsid protein) [compound 382]”: “X”; “383 (FNGLDKGEPVNAADA; REGION 1..15: note = peptide derived from viral capsid protein) [compound 383]”: “X”.

Take “384 (HSSYAHSQSLDRLMN; REGION 1..15: note = peptide derived from viral capsid protein) [compound 384]”: the “group III” value under setting [1] is listed as “X”.

For “385 (TTSTRTWALPTYNNH; REGION 1..15: note = peptide derived from viral capsid protein) [compound 385]”, under setting [1], the “group III” value is reported as “X”. On to “406 (NNNSEFAWPGASSWA; REGION 1..15: note = peptide derived from viral capsid protein) [compound 406]”, for which the “group III” value under setting [2] is “X”. Still for that read-out and setting: next, “407 (NTPVPADPPTAFNKD; REGION 1..15: note = peptide derived from viral capsid protein) [compound 407]”: “X”; “408 (STTVTQNNNSEFAWP; REGION 1..15: note = peptide derived from viral capsid protein) [compound 408]”: “X”.

Regarding “410 (ENVPFHSSYAHSQSL; REGION 1..15: note = peptide derived from viral capsid protein) [compound 410]”, the “group III” value under setting [2] is “X”. The same measure, in the same setting: the same measure for “411 (ILIKNTPVPADPPTA; REGION 1..15: note = peptide derived from viral capsid protein) [compound 411]”: “X”; for “414 (GNGLDKGEPVNAADA; REGION 1..15: note = peptide derived from viral capsid protein) [compound 414]”: “X”. Same read-out and setting: next, “416 (LNSFITQYSTGQVSV; REGION 1..15: note = peptide derived from viral capsid protein) [compound 416]”: “X”; “424 (ENSKRWNPEIQYTSN; REGION 1..15: note = peptide derived from viral capsid protein) [compound 424]”: “X”; “425 (ELQKENSKRWNPEIQ; REGION 1..15: note = peptide derived from viral capsid protein) [compound 425]”: “X”. On the same count and under the same terms, the same measure for “428 (PVATEEYGIVADNLQ; REGION 1..15: note = peptide derived from viral capsid protein) [compound 428]”: “X”; for “430 (NTPVPADPPTTFNQS; REGION 1..15: note = peptide derived from viral capsid protein) [compound 430]”: “X”.

On to “431 (EIKTTNPVATEEYGI; REGION 1..15: note = peptide derived from viral capsid protein) [compound 431]”, for which, under setting [2], the “group III” value is “X”. For the substance “432 (GSSSGNWHCDSTWLG; REGION 1..15: note = peptide derived from viral capsid protein) [compound 432]”, the “group III” value under setting [2] is listed as “X”. Still for that read-out and setting: the same measure for “434 (TNPVATEEYGIVADN; REGION 1..15: note = peptide derived from viral capsid protein) [compound 434]”: “X”. Regarding “438 (TTGGTANTQTLGFSQ; REGION 1..15: note = peptide derived from viral capsid protein) [compound 438]”, the “group III” value under setting [2] is recorded as “X”. Take “445 (NNSNFAWTAGTKYHL; REGION 1..15: note = peptide derived from viral capsid protein) [compound 445]”: under setting [2], the “group III” value is given as “X”. On the same count and under the same terms, next, “447 (YNNHLYKQISNGTSG; REGION 1..15: note = peptide derived from viral capsid protein) [compound 447]”: “X”.
